Experimental data: patent publication US20200237871A1, “METHODS FOR MITIGATING LIVER INJURY AND PROMOTING LIVER HYPERTROPHY, REGENERATION AND CELL ENGRAFTMENT IN CONJUNCTION WITH RADIATION AND/OR RADIOMIMETIC TREATMENTS” (Janssen Pharmaceutica NV, priority 2019, published 2020)

Assays:
[1] = tested on: DPPIV−/− knockout mice; experiment: LSEC engraftment/repopulation of irradiated liver by DPPIV staining (Examples 2 and 3); format: in vivo, mouse; details: targeted liver irradiation (50 Gy)
Experimental: 8-12-week-old male and female Di-peptyl peptidase IV (DPPIV) −/− knockout mice and 8-12-week-old male and female C57Bl6 mice were used in this study. Animals were weighed in the beginning of the experiment and before tissue collection. All animals were housed in the Institute for Animal Studies at Albert Einstein College of medicine and fed regular rodent chow. All experiments were performed to according to protocols approved by Institutional Animal Care and Use Committee at Albert Einstein College of Medicine. Animals were made cirrhotic using CCl4 administration (intraperitoneal [IP] injections twice a week for at least 11 weeks).
Image-guided external beam irradiation was performed using a small animal radiation research platform (SARRP, Xstrahl Inc., Suwanee, Ga.). Mice were given gastrografin contrast through gavage to improve visualization of the gastrointestinal (GI) tract. After approximately 2 minutes, mice were positioned on a tubular couch and anesthetized with ˜2% Isofluorane (Isothesia, USP) in 2 L/min pure oxygen. A cone-beam computed tomography (CBCT) scan was acquired and a treatment plan irradiating the median lobe and right lobe was generated using the MuriPlan software. […] Within the targeted lobes, the position of the isocenter was chosen to minimize irradiation of the GI tract, spine, and heart (the maximum dose to these organs was kept below 10 Gy). Targets were irradiated with 50 Gy X-rays at 220 kVp energy and 13 mA tube current (dose rate of 2.4-2.5 Gy/min) using a 1 mm copper filter for beam hardening.
TPOm was diluted in sterile PBS to a 10 mg/ml stock. The stock was stored at −20° C. and allowed to come to room temperature prior to administration. TPOm was administered as a single dose (300 μg/kg) via subcutaneous injection 10 minutes after the transplant procedure.
DPPIV was selected as a marker for engraftment of exogenous LSECs in the DPPIV (−/−) animals. […] Slide imaging was done using a Perkin Elmer P250 High Capacity Slide Scanner.
LSECs were isolated from the single-cell suspension using CD146 microbeads (Miltenyi Biotec GmbH #130-092-007).
Following isolation of LSECs, 500×10^5 LSECs are transplanted via intrasplenic injection into healthy adult mice anesthetized with Isoflurane (Isothesia, USP) 24 hrs post HIR. Buprenorphine is given post-op as an analgesic.
To test the efficacy of TPOm as an agent that can cause LSEC engraftment, DPPIV−/− knockout mice received 50GY hepatic irradiation (HIR) to the median and right lobes of the liver using external-beam CT-guided x-ray irradiation, and LSECs that express DPPIV (FIG. 2A).
The methods were identical to those described above with the exception that the LSEC transplant was administered 4-5 days post irradiation and the TPOm or Romiplostim were administered approximately 10 minutes post LSEC transplant.

[2] = tested on: DPPIV KO mice; experiment: Engraftment of transplanted LSECs and hepatocytes by DPPIV immunostaining after HIR (Example 7); format: in vivo, mouse; details: Study A; 2 months after HIR; 50 Gy; LSECs 4 or 5 days after HIR; 300 μg/kg intraperitoneally 10 minutes after LSEC transplantation
Experimental: 8-12-week-old male Di-peptyl peptidase IV knockout (Dppiv^−/−) mice and 8-12-week-old male C57BL/6 mice were used in this study.
The methods were identical to Experiment 5 as described above; including the preparation of test articles (solutions of RWJ-800088), isolation and transplant of LSECs, and Hepatic irradiation. In addition, Romiplostim was purchased from pharmacy and came in 250 μg powder. It was reconstituted per manufacturers description using solvent for solution for injection. After reconstitution, a deliverable volume of 0.5 mL solution contained 250 μg of romiplostim (500 μg/mL).
Animals were weighed in the beginning of the experiment.
The mice were transplanted with DPPIV^+ 5×10^5 liver sinusoidal endothelial cells (LSECs) intrasplenically 4 or 5 days later. The mice were then injected with 300 μg/kg of RWJ-800088 or Romiplostim intraperitoneally 10 minutes after LSEC transplantation as shown in Table 7.
The mice were then monitored until they made a full recovery and returned to the cage. The mice were followed for 2 and 5 months and necropsied. The liver was excised and prepared for the frozen section. The immunostaining of DPPIV activity was performed to examine the repopulation of the transplanted DPPIV^+ cells in the liver. […]

Substance: romiplostim [reference compound]
- Engraftment when LSEC transplant is administered 24 hours post irradiation [1]: Yes
- Engraftment when LSEC transplant is administered 4-5 days post irradiation ([1]; drug approximately 10 minutes post LSEC transplant): Yes
- repopulation of LSECs in the irradiated liver tissue (DPPIV immunostaining) [2]: repopulation of LSECs in the irradiated liver tissue was observed
